Measured values reported in patent US20020110590A1, “Pharmaceutical formulation containing DEMO for the treatment of cancer” (Ilex Oncology, Inc., priority 1996, published 2002).

Key:
polyamine pools = settings: cited from earlier work
[1] = tested on: advanced solid tumors or lymphomas; settings: patients with advanced solid tumors or lymphomas; cited from earlier work
[2] = any route of drug administration; cited from earlier work
Solubility of DFMO = type: physicochemical
[3] = healthy men; cited from earlier work
[4] = oral administration; cited from earlier work
[5] = target: T1, ornithine decarboxylase (ODC) (Homo sapiens, UniProt P11926); settings: reported by some (Danzin, 1987); cited from earlier work
T1 sequence (P11926 1-461): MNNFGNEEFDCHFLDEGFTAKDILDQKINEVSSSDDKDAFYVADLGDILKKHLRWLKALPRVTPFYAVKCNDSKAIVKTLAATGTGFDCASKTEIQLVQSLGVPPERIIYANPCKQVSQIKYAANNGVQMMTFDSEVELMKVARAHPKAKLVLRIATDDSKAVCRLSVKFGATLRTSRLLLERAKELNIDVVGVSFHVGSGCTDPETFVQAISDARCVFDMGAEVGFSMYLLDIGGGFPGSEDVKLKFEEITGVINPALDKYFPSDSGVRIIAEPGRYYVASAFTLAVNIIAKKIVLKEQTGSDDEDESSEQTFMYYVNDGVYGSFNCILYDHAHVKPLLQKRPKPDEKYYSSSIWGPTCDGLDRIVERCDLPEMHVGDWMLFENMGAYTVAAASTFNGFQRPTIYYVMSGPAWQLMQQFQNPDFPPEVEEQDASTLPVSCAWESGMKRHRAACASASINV

## NCCC[C@](N)(C(=O)O)C(F)F (racemic) [DFMO, alpha-difluoromethylornithine]
Polyamine pools
  minimum effective dose (MED) in significantly reducing polyamine pools in vivo: about 0.43 g/day
[1]
  therapeutic responses: No therapeutic responses
[2]
  therapeutic responses: No therapeutic responses
Solubility of DFMO
  water solubility: very water-soluble
Solubility of DFMO; neutral pH versus acid
  solubility of DFMO at a neutral pH: relatively lower solubility
[3]
  elimination half-life t½: about 3.5 hours
  share of drug elimination accounted for by renal clearance: 83%
[4]
  maximum tolerated dose: about 12 g/m^2/day

## NCCC[C@](N)(C(=O)O)C(F)F [(−)-DFMO, alpha-difluoromethylornithine]
[5]
  enantiomer responsible for ODC inhibition: enantiomer primarily responsible for ODC inhibition
